Experiments:
[1] = target: T1, human vasopressin V1a receptor (Homo sapiens, UniProt P37288); experiment: Human vasopressin V1a receptor binding assay; settings: 1321N1 cell membranes, [3H]vasopressin; read-out: Ki (nM) on hV1a cell line
How it was run: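 Ki values come from IC50 via Cheng-Prusoff (KD from prior Scatchard), averaged over at least two independent runs. Human V1a membranes were incubated with radioligand 60 minutes at 27° C., bound ligand collected by filtration; (Arg^8)-vasopressin at 1.2×10^−6 M defined non-specific binding.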

[2] = target: T1, human vasopressin V1a receptor; experiment: Functional assay on human vasopressin V1a receptor expressing cell line (intracellular Ca2+ fluorescence); type: cell-based; settings: 1321N1 cells, (Arg8)-vasopressin at EC80; read-out: IC50 (nM) on hV1a cell line

T1 sequence (P37288 whole entry): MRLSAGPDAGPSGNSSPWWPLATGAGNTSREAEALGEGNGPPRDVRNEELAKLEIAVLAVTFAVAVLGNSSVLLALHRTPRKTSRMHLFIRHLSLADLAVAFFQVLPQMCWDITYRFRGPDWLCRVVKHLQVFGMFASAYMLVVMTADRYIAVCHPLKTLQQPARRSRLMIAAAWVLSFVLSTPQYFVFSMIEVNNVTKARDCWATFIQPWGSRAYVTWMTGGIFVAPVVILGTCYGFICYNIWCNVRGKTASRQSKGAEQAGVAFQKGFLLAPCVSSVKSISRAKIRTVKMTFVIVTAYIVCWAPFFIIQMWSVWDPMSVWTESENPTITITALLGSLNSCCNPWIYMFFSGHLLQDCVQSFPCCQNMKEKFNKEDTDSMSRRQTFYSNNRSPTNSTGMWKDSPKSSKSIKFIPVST

SMILES	Ki [1]	IC50 [2]
CC1(C(=O)N[C@@H]2Cc3cc(Cl)ccc3-n3c(nnc3[C@H]3CC[C@H](Oc4ccccn4)CC3)C2)COC1 [Example 226, N-{(5R)-8-chloro-1-[trans-4-(pyridin-2-yloxy)cyclohexyl]-5,6-dihydro-4H-[1,2,4]triazolo[4,3-a][1]benzazepin-5-yl}-3-methyloxetan-3-carboxamide]	0.5 nM	4.2 nM
COc1ccc(CN[C@H]2CC[C@H](c3nnc4n3-c3ccc(Cl)cc3CC3(C4)OCCO3)CC2)cc1 [Example 227, Trans-4-(8′-chloro-4′H,6′H-spiro[1,3-dioxolane-2,5′-[1,2,4]triazolo[4,3-a][1]benzazepin]-1′-yl)-N-(4-methoxybenzyl)cyclohexanamine]	1 nM	51 nM
CCO[C@]1(CC)CC[C@@H](c2nnc3n2-c2ccc(Cl)cc2CC2(C3)OCCO2)CC1 [Example 229, 8′-chloro-1′-(trans-4-ethoxy-4-ethylcyclohexyl)-4′H,6′H-spiro[1,3-dioxolane-2,5′-[1,2,4]triazolo[4,3-a][1]benzazepine]]	0.4 nM	2.1 nM
COC1Cc2cc(Cl)ccc2-n2c(nnc2N2CCN(c3ccccn3)CC2)C1 (centres unmarked) [Example 232, 8-chloro-5-methoxy-1-[4-(pyridin-2-yl)piperazin-1-yl]-5,6-dihydro-4H-[1,2,4]triazolo[4,3-a][1]benzazepine]	1.3 nM	9.2 nM
CO[C@]1(C(F)(F)F)CC[C@H](c2nnc3n2-c2ccc(Cl)cc2CC2(C3)OCCO2)CC1 [Example 236, 8′-chloro-1′-[cis-4-methoxy-4-(trifluoromethyl)cyclohexyl]-4′H,6′H-spiro[1,3-dioxolane-2,5′-[1,2,4]triazolo[4,3-a][1]benzazepine]]	0.9 nM	4.2 nM
CCO[C@]1(C)CC[C@@H](c2nnc3n2-c2ccc(Cl)cc2CC2(C3)OCCO2)CC1 [Example 237, 8′-chloro-1′-(trans-4-ethoxy-4-methylcyclohexyl)-4′H,6′H-spiro[1,3-dioxolane-2,5-[1,2,4]triazolo[4,3-a][1]benzazepine]]	0.2 nM	1.5 nM
CC[C@]1(OC)CC[C@@H](c2nnc3n2-c2ccc(Cl)cc2CC2(C3)OCCO2)CC1 [Example 240, 8′-chloro-1′-(cis-4-ethyl-4-methoxycyclohexyl)-4′H,6′H-spiro[1,3-dioxolane-2,5′-[1,2,4]triazolo[4,3-a][1]benzazepine]]	0.5 nM	3.1 nM
CCC[C@]1(OC)CC[C@@H](c2nnc3n2-c2ccc(Cl)cc2CC2(C3)OCCO2)CC1 [Example 243, 8′-chloro-1′-(cis-4-methoxy-4-propylcyclohexyl)-4′H,6′H-spiro[1,3-dioxolane-2,5-[1,2,4]triazolo[4,3-a][1]benzazepine]]	0.4 nM	2.8 nM
CCO[C@]1(CC)CC[C@@H](c2nnc3n2-c2ccc(Cl)cc2CC(NC(C)C)C3)CC1 (stereo partly drawn) [Example 244, 8-chloro-1-(trans-4-ethoxy-4-ethylcyclohexyl)-N-(propan-2-yl)-5,6-dihydro-4H-[1,2,4]triazolo[4,3-a][1]benzazepin-5-amine]	25 nM	263 nM
CCO[C@]1(CC)CC[C@@H](c2nnc3n2-c2ccc(Cl)cc2CC(N(C)C)C3)CC1 (stereo partly drawn) [Example 245, 8-chloro-1-(trans-4-ethoxy-4-ethylcyclohexyl)-N,N-dimethyl-5,6-dihydro-4H-[1,2,4]triazolo[4,3-a][1]benzazepin-5-amine]	7 nM	130 nM
Clc1ccc2c(c1)CC1(Cc3nnc([C@H]4CCN(Cc5cccnc5)C4)n3-2)OCCO1 [Example 249, 8′-chloro-1-[(3S)-1-(pyridin-3-ylmethyl)pyrrolidin-3-yl]-4′H,6′H-spiro[1,3-dioxolane-2,5′-[1,2,4]triazolo[4,3-a][1]benzazepine]]	0.8 nM	7 nM
COC1Cc2cc(Cl)ccc2-n2c(nnc2[C@H]2CCN(Cc3cccnc3)C2)C1 (stereo partly drawn) [Example 251, 8-chloro-5-methoxy-1-[(3S)-1-(pyridin-3-ylmethyl)pyrrolidin-3-yl]-5,6-dihydro-4H-[1,2,4]triazolo[4,3-a][1]benzazepine]	18.5 nM	152 nM
Clc1ccc2c(c1)CC1(Cc3nnc([C@H]4CCN(Cc5ccccn5)C4)n3-2)OCCO1 [Example 252, 8′-chloro-1′-[(3S)-1-(pyridin-2-ylmethyl)pyrrolidin-3-yl]-4′H,6′H-spiro[1,3-dioxolane-2,5′-[1,2,4]triazolo[4,3-a][1]benzazepine]]	0.7 nM	8.2 nM
COC1Cc2cc(Cl)ccc2-n2c(nnc2[C@H]2CCN(Cc3ccccn3)C2)C1 (stereo partly drawn) [Example 253, 8-chloro-5-methoxy-1-[(3S)-1-(pyridin-2-ylmethyl)pyrrolidin-3-yl]-5,6-dihydro-4H-[1,2,4]triazolo[4,3-a][1]benzazepine]	5 nM	66 nM

More lines, in order of falling Ki [1], values ahead:

Ki [1]	IC50 [2]	SMILES
6.9 nM	53 nM	CC[C@]1(OC)CC[C@H](c2nnc3n2-c2ccc(Cl)cc2CC(N(C)C)C3)CC1 (stereo partly drawn) [Example 233, 8-chloro-1-(trans-4-ethyl-4-methoxycyclohexyl)-N,N-dimethyl-5,6-dihydro-4H-[1,2,4]triazolo[4,3-a][1]benzazepin-5-amine]
5 nM	30 nM	COC1Cc2cc(Cl)ccc2-n2c(nnc2[C@@H]2CCN(Cc3cccnc3)C2)C1 (some centres unmarked) [Example 247]
3.8 nM	57 nM	CCO[C@]1(C)CC[C@@H](c2nnc3n2-c2ccc(Cl)cc2CC(N(C)C)C3)CC1 (stereo partly drawn) [Example 234, 8-chloro-1-(trans-4-ethoxy-4-methylcyclohexyl)-N,N-dimethyl-5,6-dihydro-4H-[1,2,4]triazolo[4,3-a][1]benzazepin-5-amine]
2.9 nM	27 nM	Clc1ccc2c(c1)CC1(Cc3nnc([C@@H]4CCN(Cc5cccnc5)C4)n3-2)OCCO1 [Example 250, 8′-chloro-1′-[(3R)-1-(pyridin-3-ylmethyl)pyrrolidin-3-yl]-4′H, 6′H-spiro[1,3-dioxolane-2,5′-[1,2,4]triazolo[4,3-a][1]benzazepine]]
2.3 nM	22 nM	COC1Cc2cc(Cl)ccc2-n2c(nnc2[C@@H]2CCN(Cc3ccccn3)C2)C1 (stereo partly drawn) [Example 248, 8-chloro-5-methoxy-1-[(3R)-1-(pyridin-2-ylmethyl)pyrrolidin-3-yl]-5,6-dihydro-4H-[1,2,4]triazolo[4,3-a][1]benzazepine]
1.2 nM	5.6 nM	Clc1ccc2c(c1)CC1(Cc3nnc(C4CCN(Cc5ccccn5)C4)n3-2)OCCO1 (centres unmarked) [Example 239, 8′-chloro-1′-[1-(pyridin-2-ylmethyl)pyrrolidin-3-yl]-4′H,6′H-spiro[1,3-dioxolane-2,5′-[1,2,4]triazolo[4,3-a][1]benzazepine]]
1.1 nM	5.9 nM	Clc1ccc2c(c1)CC1(Cc3nnc(C4CCN(Cc5cccnc5)C4)n3-2)OCCO1 (centres unmarked) [Example 231, 8′-chloro-1′-[1-(pyridin-3-ylmethyl)pyrrolidin-3-yl]-4′H,6′H-spiro[1,3-dioxolane-2,5′-[1,2,4]triazolo[4,3-a][1]benzazepine]]
0.8 nM	6.1 nM	CC(C)(C)OC(=O)NCCN[C@@H]1Cc2cc(Cl)ccc2-n2c(nnc2[C@H]2CC[C@H](Oc3ccccn3)CC2)C1 [Example 228, Tert-butyl [2-({(5R)-8-chloro-1-[trans-4-(pyridin-2-yloxy)cyclohexyl]-5,6-dihydro-4H-[1,2,4]triazolo[4,3-a][1]benzazepin-5-yl}amino)ethyl]carbamate]
0.7 nM	12 nM	COc1ccc(CN(C)[C@H]2CC[C@H](c3nnc4n3-c3ccc(Cl)cc3CC3(C4)OCCO3)CC2)cc1 [Example 230, Trans-4-(8′-chloro-4′H,6′H-spiro[1,3-dioxolane-2,5′-[1,2,4]triazolo[4,3-a][1]benzazepin]-1′-yl)-N-(4-methoxybenzyl)-N-methylcyclohexanamine]
0.7 nM	8.2 nM	CCC[C@]1(OCC)CC[C@H](c2nnc3n2-c2ccc(Cl)cc2CC2(C3)OCCO2)CC1 [Example 238, 8′-chloro-1′-(trans-4-ethoxy-4-propylcyclohexyl)-4′H,6′-spiro[1,3-dioxolane-2,5′-[1,2,4]triazolo[4,3-a][1]benzazepine]]
0.5 nM	1.8 nM	CCC[C@]1(OC)CC[C@H](c2nnc3n2-c2ccc(Cl)cc2CC2(C3)OCCO2)CC1 [Example 242, 8′-chloro-1′-(trans-4-methoxy-4-propylcyclohexyl)-4′H,6′H-spiro[1,3-dioxolane-2,5′-[1,2,4]triazolo 4,3a][1]benzoepin]
0.5 nM	3.4 nM	Clc1ccc2c(c1)CC1(Cc3nnc([C@@H]4CCN(Cc5ccccn5)C4)n3-2)OCCO1 [Example 246, 8′-chloro-1′-[(3R)-1-(pyridin-2-ylmethyl)pyrrolidin-3-yl]-4′H,6′H-spiro[1,3-dioxolane-2,5′-[1,2,4]triazolo[4,3-a][1]benzazepine]]
0.4 nM	2.6 nM	CC[C@]1(OC)CC[C@H](c2nnc3n2-c2ccc(Cl)cc2CC2(C3)OCCO2)CC1 [Example 241, 8′-chloro-1′-(trans-4-ethyl-4-methoxycyclohexyl)-4′H,6′H-spiro[1,3-dioxolane-2,5′-[1,2,4]triazolo[4,3-a][1]benzazepine]]
0.3 nM	22 nM	CO[C@]1(C(F)(F)F)CC[C@@H](c2nnc3n2-c2ccc(Cl)cc2CC2(C3)OCCO2)CC1 [Example 235, 8′-chloro-1′-[trans-4-methoxy-4-(trifluoromethyl)cyclohexyl]-4′H,6′H-spiro[1,3-dioxolane-2,5′-[1,2,4]triazolo[4,3-a][1]benzazepine]]

From patent US11298363B2, “Triazolobenzazepines as vasopressin V1a receptor antagonists” (RICHTER GEDEON NYRT., priority 2017, dated 2022)
